How the values were obtained:
[1] = tested on: iPSC-derived M2 macrophages; test: Fluorescent phagocytosis screening assay, iPSC-derived M2 macrophages against glioma cells; assay type: cell-based, human; details: for screen of drug libraries and known inhibitors for promoters of macrophage phagocytosis: hit: glioma cells and lung ADC cells
[2] = tested on: H1002 and H146 lung cancer cells; test: Cell titer viability assay on lung cancer cells; assay type: cell-based, human; details: indicated concentrations, 72 hours, n=3
Experimental: (A) Effects of BACE1 inhibitors on lung cancer cell proliferation. H1002 and H146 lung cancer cells were treated with the indicated concentrations of the BACE1 inhibitor AZD3293, MK-8931, AZD3839, or PF-06751979 (PF) for 72 hours. Cell viability was assessed by cell titer assay (n=3). (B-D) A preclinical trial of MK-8931 for lung cancer treatment in xenograft models. H1002 lung cancer cells (5×106) were transplanted into mouse right flank through subcutaneous injection to establish subcutaneous lung cancer xenografts. […] Tumors dissected from mice of each group were photographed (C) and weighed (D). […] Data are shown as mean SEM. p **<0.01, Student's t-test.

[3] = patients, Phase I to Phase III; cited from earlier work

Structure (SMILES)	screen of drug libraries and known inhibitors for promoters of macrophage phagocytosis: hit [1]	lung cancer cell proliferation (cell viability) [2]	macrophage phagocytosis against cancer cells [1]	tolerability / safety in AD clinical trials [3]
C[C@H]1C[C@H]2CSC(N)=N[C@@]2(c2nc(NC(=O)c3ccc(OC(F)F)cn3)cs2)CO1 [PF-06751979]	hits	suppressed lung cancer cell proliferation		
NC1=N[C@@](c2cccc(-c3cncnc3)c2)(c2ccnc(C(F)F)c2)c2cccc(F)c21 [AZD3839]	hits	suppressed lung cancer cell proliferation		
Cn1cnc2c(F)c(Nc3ccc(Br)cc3Cl)c(C(=O)NOCCO)cc21 [AZD6244]	hits			
NC1=N[C@@]2(c3cc(NC(=O)c4cnc(C(F)F)cn4)ccc3F)CO[C@H](C(F)(F)F)[C@H]2CS1 [E2609]	hits		promotes macrophage phagocytosis against cancer cells	
C[C@@]1(c2cc(NC(=O)c3ccc(C#N)cn3)ccc2F)C=CSC(N)=N1 [JNJ-54861911]	hits			
CC#Cc1cncc(-c2ccc3c(c2)[C@@]2(N=C(C)C(N)=N2)[C@]2(CC[C@@H](OC)CC2)C3)c1 [AZD3293]	hits	suppressed lung cancer cell proliferation	promotes macrophage phagocytosis against cancer cells	very safe for patients
CS[C@@]1(C(=O)Nc2ccc3[nH]nc(-c4ccc(OC(C)C)nc4)c3c2)CCN(CC(=O)N2CC=C(c3ccc(-c4ncn(C)n4)cc3)CC2)C1 [MK-8353]	hits			
C[C@@]1(c2nc(NC(=O)c3ncc(C(F)(F)F)cc3Cl)ccc2F)CO[C@@](C)(C(F)(F)F)C(N)=N1 [CNP520]	hits		promotes macrophage phagocytosis against cancer cells	very safe for patients
